According to ChEMBL document CHEMBL1201862, “PubChem BioAssay data set” (2004):
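Protocol summary: plate cells (96-well), add compound at 5 concentrations, incubate 48 h, interpolate endpoints linearly. GI50 marks 50% less growth.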 Activity calls are given as the source filed them. Rule as the data show it: active = GI50 up to about 1.1 µM and inactive = higher.

Columns and labels:
Assay in all cases: NCI-60 cell line screen, 48 h
MDA-N = test system: MDA-N
SNB-19 = test system: SNB-19
U-251 = test system: U-251
786-0 = test system: 786-0
UACC-257 = test system: UACC-257
BT-549 = test system: BT-549
SW-620 = test system: SW-620
COLO 205 = test system: COLO 205
SK-MEL-2 = test system: SK-MEL-2
HOP-62 = test system: HOP-62
MCF7 = test system: MCF7
LOX IMVI = test system: LOX IMVI
SK-OV-3 = test system: SK-OV-3
MDA-MB-231 = test system: MDA-MB-231
CAKI-1 = test system: CAKI-1
SK-MEL-28 = test system: SK-MEL-28
HCT-116 = test system: HCT-116
OVCAR-3 = test system: OVCAR-3
NCI-H522 = test system: NCI-H522
SF-295 = test system: SF-295
HT-29 = test system: HT-29
NCI-H23 = test system: NCI-H23
Malme-3M = test system: Malme-3M
M14 = test system: M14
A549 = test system: A549
SR = test system: SR
CCRF-CEM = test system: CCRF-CEM
UACC-62 = test system: UACC-62
MDA-MB-435 = test system: MDA-MB-435
OVCAR-4 = test system: OVCAR-4
SF-539 = test system: SF-539
SNB-75 = test system: SNB-75
HCC 2998 = test system: HCC 2998
EKVX = test system: EKVX
SF-268 = test system: SF-268
UO-31 = test system: UO-31
KM12 = test system: KM12
PC-3 = test system: PC-3
TK-10 = test system: TK-10
NCI-H226 = test system: NCI-H226
OVCAR-5 = test system: OVCAR-5
HL-60 = test system: HL-60
T47D = test system: T47D
IGROV-1 = test system: IGROV-1
NCI/ADR-RES = test system: NCI/ADR-RES
RXF 393 = test system: RXF 393
SN12C = test system: SN12C
ACHN = test system: ACHN
HOP-92 = test system: HOP-92
SK-MEL-5 = test system: SK-MEL-5
OVCAR-8 = test system: OVCAR-8
HCT-15 = test system: HCT-15
RPMI-8226 = test system: RPMI-8226
DU-145 = test system: DU-145
NCI-H460 = test system: NCI-H460
MOLT-4 = test system: MOLT-4
Hs-578T = test system: Hs-578T
K562 = test system: K562
A498 = test system: A498

## CCO/C=N/C1=C(C#N)C(c2ccc(Cl)cc2)c2c(-c3ccccc3)nn(-c3ccccc3)c2O1 (configuration not stated)
MDA-N
  GI50: 14.7 µM (inactive)
SNB-19
  GI50: 12.7 µM (inactive)
U-251
  GI50: 8.55 µM (inactive)
786-0
  GI50: 10.2 µM (inactive)
UACC-257
  GI50: 11.8 µM (inactive)
BT-549
  GI50: 14.1 µM (inactive)
SW-620
  GI50: 12.9 µM (inactive)
COLO 205
  GI50: 5.27 µM (inactive)
SK-MEL-2
  GI50: 11.7 µM (inactive)
HOP-62
  GI50: 19.1 µM (inactive)
MCF7
  GI50: 3.81 µM (inactive)
LOX IMVI
  GI50: 9.62 µM (inactive)
SK-OV-3
  GI50: 14.3 µM (inactive)
MDA-MB-231
  GI50: 21.6 µM (inactive)
CAKI-1
  GI50: 15.7 µM (inactive)
SK-MEL-28
  GI50: 11.7 µM (inactive)
HCT-116
  GI50: 7.5 µM (inactive)
OVCAR-3
  GI50: 3.72 µM (inactive)
NCI-H522
  GI50: 3.77 µM (inactive)
SF-295
  GI50: 7.43 µM (inactive)
HT-29
  GI50: 7.53 µM (inactive)
NCI-H23
  GI50: 5.15 µM (inactive)
Malme-3M
  GI50: 12.3 µM (inactive)
M14
  GI50: 4.58 µM (inactive)
A549
  GI50: 5.73 µM (inactive)
SR
  GI50: 5.5 µM (inactive)
CCRF-CEM
  GI50: 5.73 µM (inactive)
UACC-62
  GI50: 12.2 µM (inactive)
MDA-MB-435
  GI50: 12.4 µM (inactive)
OVCAR-4
  GI50: 11.4 µM (inactive)
SF-539
  GI50: 6.14 µM (inactive)
SNB-75
  GI50: 6.81 µM (inactive)
HCC 2998
  GI50: 7.16 µM (inactive)
EKVX
  GI50: 13.9 µM (inactive)
SF-268
  GI50: 7.87 µM (inactive)
UO-31
  GI50: 11.6 µM (inactive)
KM12
  GI50: 5.09 µM (inactive)
PC-3
  GI50: 4.28 µM (inactive)
TK-10
  GI50: 7.19 µM (inactive)
NCI-H226
  GI50: 15.7 µM (inactive)
OVCAR-5
  GI50: 23.7 µM (inactive)
HL-60
  GI50: 5.66 µM (inactive)
T47D
  GI50: > 61.9 µM (inactive)
IGROV-1
  GI50: 8.93 µM (inactive)
NCI/ADR-RES
  GI50: 9.86 µM (inactive)
RXF 393
  GI50: 7.03 µM (inactive)
SN12C
  GI50: 12.2 µM (inactive)
ACHN
  GI50: 8.51 µM (inactive)
HOP-92
  GI50: 5.42 µM (inactive)
SK-MEL-5
  GI50: > 10 µM (inactive)
OVCAR-8
  GI50: 14 µM (inactive)
HCT-15
  GI50: 5.43 µM
RPMI-8226
  GI50: 6.53 µM (inactive)
DU-145
  GI50: 16 µM (inactive)
NCI-H460
  GI50: 7.69 µM (inactive)
MOLT-4
  GI50: 6.93 µM (inactive)
Hs-578T
  GI50: 6.12 µM (inactive)
K562
  GI50: 7.78 µM (inactive)
A498
  GI50: 13.4 µM (inactive)

## O=C1OC(=O)C2C1C(c1ccccc1[N+](=O)[O-])C=C(c1ccco1)N2c1ccncc1 (configuration not stated)
MDA-N
  GI50: 4.52 µM (inactive)
SNB-19
  GI50: 8.39 µM (inactive)
U-251
  GI50: 3.94 µM (inactive)
786-0
  GI50: 1.91 µM (inactive)
UACC-257
  GI50: 2.08 µM (inactive)
BT-549
  GI50: 11.6 µM (inactive)
SW-620
  GI50: 6.15 µM (inactive)
COLO 205
  GI50: 7.98 µM (inactive)
SK-MEL-2
  GI50: 13.9 µM (inactive)
HOP-62
  GI50: 15.3 µM (inactive)
MCF7
  GI50: 2.1 µM (inactive)
LOX IMVI
  GI50: 1.87 µM (inactive)
SK-OV-3
  GI50: 17.6 µM (inactive)
MDA-MB-231
  GI50: 13 µM (inactive)
CAKI-1
  GI50: 16 µM (inactive)
SK-MEL-28
  GI50: 8.34 µM (inactive)
HCT-116
  GI50: 1.83 µM (inactive)
OVCAR-3
  GI50: 11.9 µM (inactive)
NCI-H522
  GI50: 2.28 µM (inactive)
SF-295
  GI50: 10.3 µM (inactive)
HT-29
  GI50: 2.57 µM (inactive)
NCI-H23
  GI50: 11.3 µM (inactive)
Malme-3M
  GI50: 25.1 µM (inactive)
M14
  GI50: 6.84 µM (inactive)
A549
  GI50: 13.6 µM (inactive)
SR
  GI50: 0.679 µM (active)
CCRF-CEM
  GI50: 2.29 µM (inactive)
UACC-62
  GI50: 16.9 µM (inactive)
MDA-MB-435
  GI50: 8.39 µM (inactive)
OVCAR-4
  GI50: 15.2 µM (inactive)
SF-539
  GI50: 4.65 µM (inactive)
SNB-75
  GI50: 14 µM (inactive)
HCC 2998
  GI50: 1.86 µM (inactive)
EKVX
  GI50: 15.2 µM (inactive)
SF-268
  GI50: 10.3 µM (inactive)
UO-31
  GI50: 6.01 µM (inactive)
KM12
  GI50: 1.98 µM (inactive)
PC-3
  GI50: 13.3 µM (inactive)
TK-10
  GI50: 3.82 µM (inactive)
NCI-H226
  GI50: 12.8 µM (inactive)
OVCAR-5
  GI50: 18.2 µM (inactive)
HL-60
  GI50: 1.77 µM (inactive)
T47D
  GI50: 4.97 µM (inactive)
IGROV-1
  GI50: 2.09 µM (inactive)
NCI/ADR-RES
  GI50: 18.8 µM (inactive)
RXF 393
  GI50: 4.67 µM (inactive)
SN12C
  GI50: 8.95 µM (inactive)
ACHN
  GI50: 1.85 µM (inactive)
HOP-92
  GI50: 3.68 µM (inactive)
SK-MEL-5
  GI50: 4.09 µM (inactive)
OVCAR-8
  GI50: 10.7 µM (inactive)
HCT-15
  GI50: 2.92 µM
RPMI-8226
  GI50: 1.87 µM (inactive)
DU-145
  GI50: 7.01 µM (inactive)
NCI-H460
  GI50: 12.1 µM (inactive)
MOLT-4
  GI50: 1.88 µM (inactive)
Hs-578T
  GI50: > 25.9 µM (inactive)
K562
  GI50: 1.35 µM (inactive)
A498
  GI50: 12.2 µM (inactive)

## COc1ccc(/N=C(/SS/C(=N/c2ccc(OC)cc2)c2ccc([N+](=O)[O-])o2)c2ccc([N+](=O)[O-])o2)cc1
MDA-N
  GI50: 2.07 µM (inactive)
SNB-19
  GI50: 1.38 µM (inactive)
U-251
  GI50: 0.35 µM (active)
786-0
  GI50: 0.719 µM (active)
UACC-257
  GI50: 2.06 µM (inactive)
BT-549
  GI50: 1.54 µM (inactive)
SW-620
  GI50: 0.35 µM (active)
COLO 205
  GI50: 1.92 µM (inactive)
SK-MEL-2
  GI50: 2.08 µM (inactive)
HOP-62
  GI50: 1.94 µM (inactive)
MCF7
  GI50: 0.51 µM (active)
LOX IMVI
  GI50: 1.78 µM (inactive)
SK-OV-3
  GI50: 2.79 µM (inactive)
MDA-MB-231
  GI50: 2.77 µM (inactive)
CAKI-1
  GI50: 1.92 µM (inactive)
SK-MEL-28
  GI50: 2.49 µM (inactive)
HCT-116
  GI50: 1.18 µM (inactive)
OVCAR-3
  GI50: 0.624 µM (active)
NCI-H522
  GI50: 0.286 µM (active)
SF-295
  GI50: 2.16 µM (inactive)
HT-29
  GI50: 0.701 µM (active)
NCI-H23
  GI50: 1.45 µM (inactive)
Malme-3M
  GI50: 2.02 µM (inactive)
M14
  GI50: 1.7 µM (inactive)
A549
  GI50: 2.79 µM (inactive)
SR
  GI50: 0.547 µM (active)
CCRF-CEM
  GI50: 2.08 µM (inactive)
UACC-62
  GI50: 1.28 µM (inactive)
MDA-MB-435
  GI50: 1.59 µM (inactive)
OVCAR-4
  GI50: 1.42 µM (inactive)
SF-539
  GI50: 1.49 µM (inactive)
SNB-75
  GI50: 1.27 µM (inactive)
HCC 2998
  GI50: 1.32 µM (inactive)
EKVX
  GI50: 1.52 µM (inactive)
SF-268
  GI50: 1.89 µM (inactive)
UO-31
  GI50: 1.24 µM (inactive)
KM12
  GI50: 1.14 µM (inactive)
PC-3
  GI50: 0.838 µM (active)
TK-10
  GI50: 2.38 µM (inactive)
NCI-H226
  GI50: 10.1 µM (inactive)
OVCAR-5
  GI50: 2.2 µM (inactive)
HL-60
  GI50: 1.69 µM (inactive)
T47D
  GI50: 1.61 µM (inactive)
IGROV-1
  GI50: 1.75 µM (inactive)
NCI/ADR-RES
  GI50: 1.39 µM (inactive)
RXF 393
  GI50: 0.695 µM (active)
SN12C
  GI50: 1.95 µM (inactive)
ACHN
  GI50: 1.41 µM (inactive)
HOP-92
  GI50: 3.53 µM (inactive)
SK-MEL-5
  GI50: 5.75 µM (inactive)
OVCAR-8
  GI50: 1.37 µM (inactive)
HCT-15
  GI50: 0.489 µM
RPMI-8226
  GI50: 0.489 µM (active)
DU-145
  GI50: 1.41 µM (inactive)
NCI-H460
  GI50: 0.982 µM (active)
MOLT-4
  GI50: 4.08 µM (inactive)
Hs-578T
  GI50: 2.19 µM (inactive)
K562
  GI50: 1.19 µM (inactive)
A498
  GI50: 12.4 µM (inactive)
